Data as given in BindingDB's records for PubMed 38436272 (Sorbonne University, 2024).

Biological target: Forkhead box protein O3 (Homo sapiens, UniProt O43524)
Test: Induction of nuclear translocation of FOXO3 in human U2OS cells by inverted microscopic analysis

Sequence of Forkhead box protein O3 (O43524 whole entry): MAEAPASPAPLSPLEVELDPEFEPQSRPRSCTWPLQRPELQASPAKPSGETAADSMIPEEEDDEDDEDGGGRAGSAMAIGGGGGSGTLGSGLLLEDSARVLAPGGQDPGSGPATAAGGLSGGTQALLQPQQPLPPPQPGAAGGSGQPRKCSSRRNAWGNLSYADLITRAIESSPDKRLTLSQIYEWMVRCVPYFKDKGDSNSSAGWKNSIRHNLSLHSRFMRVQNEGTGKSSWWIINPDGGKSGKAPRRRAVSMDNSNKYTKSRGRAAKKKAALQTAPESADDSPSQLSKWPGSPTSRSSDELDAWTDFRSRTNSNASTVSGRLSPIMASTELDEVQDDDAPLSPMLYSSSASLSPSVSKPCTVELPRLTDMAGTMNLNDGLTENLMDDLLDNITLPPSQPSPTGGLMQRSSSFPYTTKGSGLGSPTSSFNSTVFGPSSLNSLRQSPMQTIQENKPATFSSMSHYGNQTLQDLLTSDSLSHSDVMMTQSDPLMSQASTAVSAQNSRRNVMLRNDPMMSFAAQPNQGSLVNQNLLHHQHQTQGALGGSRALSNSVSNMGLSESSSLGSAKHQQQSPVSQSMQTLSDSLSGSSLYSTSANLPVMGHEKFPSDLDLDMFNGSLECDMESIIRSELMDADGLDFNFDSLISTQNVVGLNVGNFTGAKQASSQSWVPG

- EC50: 37.7 µM
Structure (SMILES): COc1cc(/C=C/C(=O)N2CCC=CC2=O)cc(OC)c1OC [CHEBI:8241]
